Data taken from EP0623592B1, “Peptide analogs as irreversible interleukin-1beta protease inhibitors” (VERTEX PHARMACEUTICALS INCORPORATED, priority 1993, dated 1994).

Target: T1, IL-1β protease (Homo sapiens, UniProt P29466)
T1 construct: Partially purified IL-1β protease is stored at -80°C
T1 sequence (P29466 120-297 limits assumed): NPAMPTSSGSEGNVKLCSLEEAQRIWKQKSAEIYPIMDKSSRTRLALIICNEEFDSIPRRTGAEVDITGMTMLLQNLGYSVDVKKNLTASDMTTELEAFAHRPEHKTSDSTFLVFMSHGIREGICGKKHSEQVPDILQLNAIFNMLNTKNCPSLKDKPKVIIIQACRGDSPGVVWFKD
T1 sequence (P29466 317-404 limits assumed): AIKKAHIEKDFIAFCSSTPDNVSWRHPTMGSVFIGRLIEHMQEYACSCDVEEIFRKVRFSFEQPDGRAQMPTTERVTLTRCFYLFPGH
Experiment: IL-1β protease inhibition assay (HPLC readout of TRITC-AYVHDAPVRS-NH2 substrate cleavage)
Format: biochemical
Details: partially purified IL-1β protease; 15 minutes preincubation with inhibitor at 37°C; substrate 67 µM; 60 minutes at 37°C
Experimental: Compounds of the present invention were tested for IL-1β protease inhibition activity according to the following protocol: Partially purified IL-1β protease is stored at -80°C, thawed on ice, and preincubated for 10 minutes at 37°C with 2.5 mM dithiothreitol in a buffer solution containing 10 mM Tris-HCI (pH 8.0) and 25% (v/w) glycerol. Inhibitors are prepared as stock solutions in dimethyl sulfoxide (DMSO). The protease is preincubated with inhibitor in a volume of 20 µl in a 1.5 ml polypropylene microcentrifuge tube for 15 minutes at 37°C. The volume of compound added to the assay is adjusted to yield a DMSO concentration in the preincubation of <15% (v/v). The enzyme assay is then initiated by the addition of substrate (TRITC-AYVHDAPVRS-NH2) to yield a final concentration of 67 µM in a final volume of 30 µl. The reactions are carried out for 60 minutes at 37°C in the dark and are terminated by the addition of 10 µl of 10% trifluoroacetic acid (TFA). Following the addition of 115 µl of 0.1% TFA, the samples are analyzed by high pressure liquid chromatography using a reverse phase (C18) column and elution with an acetonitrile/water/TFA gradient. Substrate and product are monitored by their absorbance at 550 nm and elute at 4.2 and 5.2 minutes, respectively.

Row | SMILES | IC50
1 | O=C(O)C[C@H](NC(=O)OCc1ccccc1)C(=O)COC(=O)c1c(C(F)(F)F)cccc1C(F)(F)F [Example 40, N-Benzyloxycarbonyl-L-aspartic acid 2,6-ditrifluoromethyl benzoyloxymethyl ketone] | 0.1 µM
2 | COC(=O)N[C@@H](C)C(=O)N[C@@H](CC(=O)O)C(=O)COC(=O)c1c(Cl)cccc1Cl [Example 54, N-Methoxycarbonyl-L-alanine-L-aspartic acid 2,6-dichlorobenzoyloxymethyl ketone] | 0.06 µM
3 | COC(=O)N[C@@H](CC(=O)O)C(=O)COC(=O)c1c(Cl)cccc1Cl [Example 67, N-Methoxycarbonyl-L-aspartic acid 2,6-dichlorobenzoyloxymethyl ketone] | 0.08 µM
4 | COC(=O)N[C@@H](Cc1ccccc1)C(=O)N[C@@H](CC(=O)O)C(=O)COC(=O)c1c(Cl)cccc1Cl [Example 57, N-Methoxycarbonyl-L-phenylalanine-L-aspartic acid 2,6-dichlorobenzoyloxymethyl ketone] | 0.07 µM
5 | O=C(O)C[C@H](NC(=O)OCc1ccccc1)C(=O)COc1c(Cl)cccc1Cl [Example 41, N-Benzyloxycarbonyl-L-aspartic acid 2,6-dichlorophenoxymethylketone] | 0.1 µM
6 | O=C(O)C[C@H](NC(=O)OCc1ccccc1)C(=O)COC(=O)c1c(Cl)cccc1Cl [Example 38, N-Benzyloxycarbonyl-L-Aspartic Acid 2,6-Dichlorobenzoyloxymethyl Ketone] | 0.05 µM
